Laboratory results from PMC12775434, “Ultra-large virtual screening unveils potent agonists of the neuromodulatory orphan receptor GPR139” (Nature Communications, 2025).
“And” between values parts separate entries of the source, which are not always exact repeats. Equal entries are not always repeated.

Biological target: T1, GPR139 (Homo sapiens, UniProt Q6DWJ6)
T1 sequence (Q6DWJ6 1-353): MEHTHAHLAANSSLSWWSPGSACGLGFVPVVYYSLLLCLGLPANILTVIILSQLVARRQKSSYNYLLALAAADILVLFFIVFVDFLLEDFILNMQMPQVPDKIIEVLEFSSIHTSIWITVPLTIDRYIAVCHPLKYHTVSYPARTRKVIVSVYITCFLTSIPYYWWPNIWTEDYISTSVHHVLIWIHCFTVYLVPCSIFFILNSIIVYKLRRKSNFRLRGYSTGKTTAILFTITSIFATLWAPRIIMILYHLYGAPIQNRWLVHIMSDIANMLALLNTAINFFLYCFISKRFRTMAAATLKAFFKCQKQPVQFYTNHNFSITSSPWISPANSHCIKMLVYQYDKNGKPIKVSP
Assay: Ca2+ mobilization assay, agonist mode, stable GPR139-CHOk1 cell line
Assay type: cell-based
Settings: for EC50: GPR139-CHOk1, read-out: EC50, Ca2+ mobilization; for Emax: Supplementary Table 2, normalized to Lundbeck Cmp 1a, mean ± SEM, read-out: Emax (%) Ca2+; for fold improved potency compared to compound 1: Ca2+ mobilization EC50
In short: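 Agonist activity of compounds is assessed in stably transfected CHO-K1 cells using the calcium dye Fluo-4 at 37 °C in HEPES-buffered HBSS (pH 7.4). Efficacy is expressed relative to the reference agonist Lundbeck Cmp 1a, set as 100%.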

[1] = log [Compound] M -4.5, replicate experiments
[2] = log [Compound] M -5.0, replicate experiments
[3] = log [Compound] M -5.5, replicate experiments
[4] = log [Compound] M -6.0, replicate experiments
[5] = log [Compound] M -6.5, replicate experiments
[6] = log [Compound] M -7.0, replicate experiments
[7] = log [Compound] M -7.5, replicate experiments
[8] = log [Compound] M -8.0, replicate experiments
[9] = log [Compound] M -8.5, replicate experiments
[10] = log [Compound] M -9.0, replicate experiments
[11] = Agonist mode, individual replicates (Supplementary Figure 4)
[12] = log [Compound] M = -4.5, individual replicate columns
[13] = log [Compound] M = -5.0, individual replicate columns
[14] = log [Compound] M = -5.5, individual replicate columns
[15] = log [Compound] M = -6.0, individual replicate columns
[16] = log [Compound] M = -6.5, individual replicate columns
[17] = log [Compound] M = -7.0, individual replicate columns
[18] = log [Compound] M = -7.5, individual replicate columns
[19] = log [Compound] M = -8.0, individual replicate columns
[20] = log [Compound] M = -8.5, individual replicate columns
[21] = log [Compound] M = -9.0, individual replicate columns

| EC50 | Emax | fold improved potency compared to compound 1 | Structure (SMILES) | Ca2+ signal (% of Cmp 1a) [1] | Ca2+ signal (% of Cmp 1a) [2] | Ca2+ signal (% of Cmp 1a) [3] | Ca2+ signal (% of Cmp 1a) [4] | Ca2+ signal (% of Cmp 1a) [5] | Ca2+ signal (% of Cmp 1a) [6] | Ca2+ signal (% of Cmp 1a) [7] | Ca2+ signal (% of Cmp 1a) [8] | Ca2+ signal (% of Cmp 1a) [9] | Ca2+ signal (% of Cmp 1a) [10] | Ca2+ signal (% of Cmp 1a) [11] | Ca2+ signal (% of Cmp 1a) [12] | Ca2+ signal (% of Cmp 1a) [13] | Ca2+ signal (% of Cmp 1a) [14] | Ca2+ signal (% of Cmp 1a) [15] | Ca2+ signal (% of Cmp 1a) [16] | Ca2+ signal (% of Cmp 1a) [17] | also measured |
| --- | --- | --- | --- | --- | --- | --- | --- | --- | --- | --- | --- | --- | --- | --- | --- | --- | --- | --- | --- | --- | --- |
| 50 nM | 125 ± 12% | 3 fold | Cc1cscc1-c1nc(CC(=O)NC(C)c2ccccc2)no1 (stereo not shown) [Compound 1.1, CC(C1=CC=CC=C1)NC(CC2=NOC(C3=CSC=C3C)=N2)=O] | 130 % of Cmp 1a and 133 % of Cmp 1a and 104 % of Cmp 1a and 91 % of Cmp 1a | 136 % of Cmp 1a and 130 % of Cmp 1a and 133 % of Cmp 1a and 83 % of Cmp 1a | 124 % of Cmp 1a and 109 % of Cmp 1a and 177 % of Cmp 1a and 86 % of Cmp 1a | 113 % of Cmp 1a and 116 % of Cmp 1a and 167 % of Cmp 1a and 85 % of Cmp 1a | 103 % of Cmp 1a and 101 % of Cmp 1a and 147 % of Cmp 1a and 66 % of Cmp 1a | 80 % of Cmp 1a and 83 % of Cmp 1a and 116 % of Cmp 1a and 48 % of Cmp 1a | 60 % of Cmp 1a and 56 % of Cmp 1a and 80 % of Cmp 1a and 40 % of Cmp 1a | 36 % of Cmp 1a and 26 % of Cmp 1a and 21 % of Cmp 1a and 24 % of Cmp 1a | 21 % of Cmp 1a and 9 % of Cmp 1a and -4 % of Cmp 1a and 18 % of Cmp 1a | 19 % of Cmp 1a and 13 % of Cmp 1a and -16 % of Cmp 1a and 5.33 % of Cmp 1a | 96 % of Cmp 1a and 101 % of Cmp 1a and 83 % of Cmp 1a | 130 % of Cmp 1a and 133 % of Cmp 1a and 104 % of Cmp 1a and 91 % of Cmp 1a | 136 % of Cmp 1a and 130 % of Cmp 1a and 133 % of Cmp 1a and 83 % of Cmp 1a | 124 % of Cmp 1a and 109 % of Cmp 1a and 177 % of Cmp 1a and 86 % of Cmp 1a | 113 % of Cmp 1a and 116 % of Cmp 1a and 167 % of Cmp 1a and 85 % of Cmp 1a | 103 % of Cmp 1a and 101 % of Cmp 1a and 147 % of Cmp 1a and 66 % of Cmp 1a | 80 % of Cmp 1a and 83 % of Cmp 1a and 116 % of Cmp 1a and 48 % of Cmp 1a | Ca2+ signal (% of Cmp 1a) [18]: 60 % of Cmp 1a and 56 % of Cmp 1a and 80 % of Cmp 1a and 40 % of Cmp 1a; Ca2+ signal (% of Cmp 1a) [19]: 36 % of Cmp 1a and 26 % of Cmp 1a and 21 % of Cmp 1a and 24 % of Cmp 1a; Ca2+ signal (% of Cmp 1a) [20]: 21 % of Cmp 1a and 9 % of Cmp 1a and -4 % of Cmp 1a and 18 % of Cmp 1a; Ca2+ signal (% of Cmp 1a) [21]: 19 % of Cmp 1a and 13 % of Cmp 1a and -16 % of Cmp 1a and 5.33 % of Cmp 1a |
| 50 nM | 116 ± 6% | 3 fold | COc1ccccc1-c1nc(CC(=O)NC(C)c2ccccc2)no1 (stereo not shown) [Compound 1.2, COC1=C(C2=NC(CC(NC(C3=CC=CC=C3)C)=O)=NO2)C=CC=C1] | – | – | – | – | – | – | – | – | – | – | 84 % of Cmp 1a and 90 % of Cmp 1a and 64 % of Cmp 1a | 101 % of Cmp 1a and 98 % of Cmp 1a and 89 % of Cmp 1a and 111 % of Cmp 1a and 113 % of Cmp 1a | 95 % of Cmp 1a and 88 % of Cmp 1a and 96 % of Cmp 1a and 108 % of Cmp 1a (2×) | 86 % of Cmp 1a and 100 % of Cmp 1a and 98 % of Cmp 1a and 101 % of Cmp 1a and 103 % of Cmp 1a | 77 % of Cmp 1a (2×) and 83 % of Cmp 1a and 90 % of Cmp 1a and 93 % of Cmp 1a | 65 % of Cmp 1a and 81 % of Cmp 1a and 77 % of Cmp 1a and 70 % of Cmp 1a and 86 % of Cmp 1a | 63 % of Cmp 1a (2×) and 64 % of Cmp 1a and 53 % of Cmp 1a and 56 % of Cmp 1a | Ca2+ signal (% of Cmp 1a) [18]: 46 % of Cmp 1a and 38 % of Cmp 1a and 39 % of Cmp 1a and 41 % of Cmp 1a and 52 % of Cmp 1a; Ca2+ signal (% of Cmp 1a) [19]: 14 % of Cmp 1a and 11 % of Cmp 1a (2×) and 15 % of Cmp 1a and 18 % of Cmp 1a; Ca2+ signal (% of Cmp 1a) [20]: 3.23 % of Cmp 1a and -2.25 % of Cmp 1a and 2.37 % of Cmp 1a and 7.37 % of Cmp 1a and 3.35 % of Cmp 1a; Ca2+ signal (% of Cmp 1a) [21]: 5 % of Cmp 1a and -0.0349 % of Cmp 1a and -0.541 % of Cmp 1a and 0.358 % of Cmp 1a and 0.331 % of Cmp 1a |

| Structure (SMILES) | EC50 | Emax | fold improved potency compared to compound 1 | Ca2+ signal (% of Cmp 1a) [1] | Ca2+ signal (% of Cmp 1a) [2] | Ca2+ signal (% of Cmp 1a) [3] | Ca2+ signal (% of Cmp 1a) [4] | Ca2+ signal (% of Cmp 1a) [5] | Ca2+ signal (% of Cmp 1a) [6] | Ca2+ signal (% of Cmp 1a) [7] | Ca2+ signal (% of Cmp 1a) [8] | Ca2+ signal (% of Cmp 1a) [9] | Ca2+ signal (% of Cmp 1a) [10] | Ca2+ signal (% of Cmp 1a) [11] | Ca2+ signal (% of Cmp 1a) [12] | Ca2+ signal (% of Cmp 1a) [13] | Ca2+ signal (% of Cmp 1a) [14] | Ca2+ signal (% of Cmp 1a) [15] | Ca2+ signal (% of Cmp 1a) [16] | Ca2+ signal (% of Cmp 1a) [17] | also measured |
| --- | --- | --- | --- | --- | --- | --- | --- | --- | --- | --- | --- | --- | --- | --- | --- | --- | --- | --- | --- | --- | --- |
| Cc1cc(-c2nc(CC(=O)NC(C)c3ccccc3)no2)sc1C (stereo not shown) [Compound 1, CC(NC(=O)CC1=NOC(=N1)C2=CC(C)=C(C)S2)C=3C=CC=CC3] | 160 nM | 94 ± 3% | – | 84 % of Cmp 1a and 91 % of Cmp 1a and 93 % of Cmp 1a | 91 % of Cmp 1a and 83 % of Cmp 1a and 90 % of Cmp 1a | 79 % of Cmp 1a | 79 % of Cmp 1a and 67 % of Cmp 1a and 70 % of Cmp 1a | 57 % of Cmp 1a and 52 % of Cmp 1a and 53 % of Cmp 1a | 45 % of Cmp 1a and 26 % of Cmp 1a and 43 % of Cmp 1a | 27 % of Cmp 1a and 24 % of Cmp 1a and 16 % of Cmp 1a | 10 % of Cmp 1a and 2 % of Cmp 1a and 7.42 % of Cmp 1a | 1.62 % of Cmp 1a and 6 % of Cmp 1a and 3.64 % of Cmp 1a | 6 % of Cmp 1a and -1.9 % of Cmp 1a and 3.54 % of Cmp 1a | – | – | – | – | – | – | – | Ca2+ signal (% of Cmp 1a) (0.1 µM, individual replicates (Supplementary Figure 3)): 36.2 % of Cmp 1a and 58.0 % of Cmp 1a; Ca2+ signal (% of Cmp 1a) (1 µM, individual replicates (Supplementary Figure 3)): 74.5 % of Cmp 1a and 72.2 % of Cmp 1a; Ca2+ signal (% of Cmp 1a) (10 µM, individual replicates (Supplementary Figure 3)): 88.7 % of Cmp 1a and 74.0 % of Cmp 1a; Ca2+ signal (% of Cmp 1a) (Agonist mode, individual replicates (Supplementary Figure 1)): 94 % of Cmp 1a (2×) and 99 % of Cmp 1a; Ca2+ signal (% of Cmp 1a) (primary screen, 10 µM compound, agonist mode, three columns = independent experiments): 94 % of Cmp 1a and 99 % of Cmp 1a |
